In patent US8822505B2, “Azetidine derivatives” (Hoffmann-La Roche Inc., priority 2012, dated 2014):

Tests used:
human Cat L = human Cat L (Homo sapiens (Human), UniProt P07711); test: Cathepsin enzyme inhibition assay (human Cat L); assay type: biochemical; conditions: enzyme 1 nM, substrate Z-Val-Val-Arg-AMC 20 μM, pH 6.5
Procedure: (§1) Cathepsin Enzyme Inhibition Assay
(§2) Enzyme activity is measured by observing the increase in fluorescence intensity caused by cleavage of a peptide substrate containing a fluorophore whose emission is quenched in the intact peptide.
(§3) Assay buffer: 100 mM potassium phosphate pH 6.5, EDTA-Na 5 mM, Triton X-100 0.001%, DTT 5 mM.
(§4) Enzymes (all at 1 nM): human and mouse Cathepsin S, Cat K, Cat B, Cat L.
(§5) Substrate (20 μM): Z-Val-Val-Arg-AMC, except for Cat K which uses Z-Leu-Arg-AMC (both from Bachem).
Excitation 360 nm, Emission 465 nm.
Enzyme is added to the substance dilutions in 96-well microtitre plates and the reaction is started with substrate. Fluorescence emission is measured over 20 minutes, during which time a linear increase is observed in the absence of inhibitor. IC50 are calculated by standard methods.
Inhibition of human Cat S, mouse Cat S, human Cat K, human Cat B, human Cat L and mouse Cat L have been measured separately. The results obtained for human Cat S and L for representative compounds of the invention are expressed in the following table in μM.

human Cat S = human Cat S (Homo sapiens (Human), UniProt P25774); test: Cathepsin enzyme inhibition assay (human Cat S); assay type: biochemical; conditions: enzyme 1 nM, substrate Z-Val-Val-Arg-AMC 20 μM, pH 6.5
Procedure: as §1, §2, §3, §4, §5
Enzyme is added to the substance dilutions in 96-well microtitre plates and the reaction is started with substrate. […] IC50 are calculated by standard methods.
Inhibition of human Cat S, mouse Cat S, human Cat K, human Cat B, human Cat L and mouse Cat L have been measured separately.

Chain of human Cat L (P07711 114-333): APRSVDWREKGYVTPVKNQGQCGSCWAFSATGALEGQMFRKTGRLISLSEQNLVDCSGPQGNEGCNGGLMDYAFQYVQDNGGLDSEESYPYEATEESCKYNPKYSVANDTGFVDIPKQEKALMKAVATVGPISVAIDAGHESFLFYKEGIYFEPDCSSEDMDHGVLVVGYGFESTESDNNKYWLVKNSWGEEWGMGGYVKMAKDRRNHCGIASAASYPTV
Chain of human Cat S (P25774 115-331): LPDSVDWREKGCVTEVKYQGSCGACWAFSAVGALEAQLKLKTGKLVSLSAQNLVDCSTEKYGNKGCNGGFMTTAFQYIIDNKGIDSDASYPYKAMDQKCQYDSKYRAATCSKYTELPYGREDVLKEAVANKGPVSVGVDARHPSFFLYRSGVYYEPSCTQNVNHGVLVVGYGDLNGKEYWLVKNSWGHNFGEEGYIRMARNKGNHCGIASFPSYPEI

SMILES	IC50 (human Cat L) [nM]	IC50 (human Cat S) [nM]
N#CC1(NC(=O)[C@@H]2C[C@@H](S(=O)(=O)c3ccc(OCC(F)(F)F)cc3Cl)CN2C(=O)C2(c3ccc(Br)cn3)CN(CC(F)F)C2)CC1 [Example 9, (2S,4R)-1-[3-(5-Bromo-pyridin-2-yl)-1-(2,2-difluoro-ethyl)-azetidine-3-carbonyl]-4-[2-chloro-4-(2,2,2-trifluoro-ethoxy)-benzenesulfonyl]-pyrrolidine-2-carboxylic acid (1-cyano-cyclopropyl)-amide]	91.7	0.779
CC(C)(C)OC(=O)N1CCC1(C(=O)N1C[C@H](S(=O)(=O)c2ccc(F)cc2Cl)C[C@H]1C(=O)NC1(C#N)CC1)c1ncc(Br)cc1F (stereo partly drawn) [Example 26, 2-(5-Bromo-3-fluoro-pyridin-2-yl)-2-[(2S,4R)-4-(2-chloro-4-fluoro-benzenesulfonyl)-2-(1-cyano-cyclopropylcarbamoyl)-pyrrolidine-1-carbonyl]-azetidine-1-carboxylic acid tert-butyl ester]	471	4.45
N#CC1(NC(=O)[C@@H]2C[C@@H](S(=O)(=O)c3ccc(OCC(F)(F)F)cc3Cl)CN2C(=O)C2(c3ccc(Br)cn3)CNC2)CC1 [Example 7, (2S,4R)-1-[3-(5-Bromo-pyridin-2-yl)-azetidine-3-carbonyl]-4-[2-chloro-4-(2,2,2-trifluoro-ethoxy)-benzenesulfonyl]-pyrrolidine-2-carboxylic acid (1-cyano-cyclopropyl)-amide]	73.5	3.82
C[C@H](Oc1ccc(S(=O)(=O)[C@@H]2C[C@@H](C(=O)NC3(C#N)CC3)N(C(=O)C3(c4ncc(Br)cc4F)CN(CC(F)F)C3)C2)c(Cl)c1)C(F)(F)F [Example 49, (2S,4R)-1-[3-(5-Bromo-3-fluoro-pyridin-2-yl)-1-(2,2-difluoro-ethyl)-azetidine-3-carbonyl]-4-[2-chloro-4-((S)-2,2,2-trifluoro-1-methyl-ethoxy)-benzenesulfonyl]-pyrrolidine-2-carboxylic acid (1-cyano-cyclopropyl)-amide]	5	1
Cc1cc(-c2ccc(S(=O)(=O)[C@@H]3C[C@@H](C(=O)NC4(C#N)CC4)N(C(=O)C4(c5ncc(Br)cc5F)CCN4C(=O)OC(C)(C)C)C3)c(Cl)c2)ccn1 (stereo partly drawn) [Example 42, 2-(5-Bromo-3-fluoro-pyridin-2-yl)-2-[(2S,4R)-4-[2-chloro-4-(2-methyl-pyridin-4-yl)-benzenesulfonyl]-2-(1-cyano-cyclopropylcarbamoyl)-pyrrolidine-1-carbonyl]-azetidine-1-carboxylic acid tert-butyl ester]	662	4.6

Continued by falling IC50 (human Cat L), values first:

IC50 (human Cat L) [nM]	IC50 (human Cat S) [nM]	SMILES
2910	0.492	CC(C)(C)OC(=O)N1CCC1(C(=O)N1C[C@H](S(=O)(=O)c2ccc(F)cc2Cl)C[C@H]1C(=O)NC1(C#N)CC1)c1ncc(Br)cc1F (stereo partly drawn) [Example 25, 2-(5-Bromo-3-fluoro-pyridin-2-yl)-2-[(2S,4R)-4-(2-chloro-4-fluoro-benzenesulfonyl)-2-(1-cyano-cyclopropylcarbamoyl)-pyrrolidine-1-carbonyl]-azetidine-1-carboxylic acid tert-butyl ester]
20.1	0.721	CCN1CC(C(=O)N2C[C@H](S(=O)(=O)c3ccccc3Cl)C[C@H]2C(=O)NC2(C#N)CC2)(c2ncc(Br)cc2F)C1 [Example 15, (2S,4R)-1-[3-(5-Bromo-3-fluoro-pyridin-2-yl)-1-ethyl-azetidine-3-carbonyl]-4-(2-chloro-benzenesulfonyl)-pyrrolidine-2-carboxylic acid (1-cyano-cyclopropyl)-amide]
5	0.9	C[C@H](Oc1ccc(S(=O)(=O)[C@@H]2C[C@@H](C(=O)NC3(C#N)CC3)N(C(=O)C3(c4ncc(Br)cc4F)CN(C=O)C3)C2)c(Cl)c1)C(F)(F)F [Example 50, (2S,4R)-1-[3-(5-Bromo-3-fluoro-pyridin-2-yl)-1-formyl-azetidine-3-carbonyl]-4-[2-chloro-4-((S)-2,2,2-trifluoro-1-methyl-ethoxy)-benzenesulfonyl]-pyrrolidine-2-carboxylic acid (1-cyano-cyclopropyl)-amide]
